The nature of the data set: xn = mol fraction of the nth substance listed. To be noted: 101.3 kPa, Liquid, Pycnometric method.

By mass density is commonly meant the mass of a sample divided by its volume.

Numbers after ± are expanded uncertainties.

For the molecule `OCCOCCOCCO` [triethylene glycol] + C[N+](C)(C)CCO.[Cl-], the mass density by setting is: (293.15 K, x2 = 0.2) 1120.3 ± 1.1 kg/m3; (293.15 K, x2 = 0.25) 1133.1 ± 1.1 kg/m3; (303.15 K, x2 = 0.2) 1114.6 ± 1.1 kg/m3; (303.15 K, x2 = 0.25) 1126.2 ± 1.1 kg/m3; (313.15 K, x2 = 0.2) 1108.9 ± 1.1 kg/m3; (313.15 K, x2 = 0.25) 1119.3 ± 1.1 kg/m3. Also, the mass density (323.15 K, x2 = 0.2) worked out at 1103.2 ± 1.1 kg/m3 and the mass density (323.15 K, x2 = 0.25) is recorded as 1112.4 ± 1.1 kg/m3.

Turning to `C[N+](C)(C)CCO.[Cl-]` [choline chloride] + Oc1ccccc1, the mass density (293.15 K, x1 = 0.2) was 1091.3 ± 1 kg/m3; the mass density (293.15 K, x1 = 0.25) amounted to 1092.7 ± 1 kg/m3; the mass density (293.15 K, x1 = 0.333) was 1096.6 ± 1 kg/m3; the mass density (303.15 K, x1 = 0.2) is 1085.1 ± 1 kg/m3; the mass density (303.15 K, x1 = 0.25) came out at 1087.3 ± 1 kg/m3; the mass density (303.15 K, x1 = 0.333) is listed as 1093.8 ± 1 kg/m3. The mass density worked out at 1081.1 ± 1 kg/m3 (313.15 K, x1 = 0.2); 1083.9 ± 1 kg/m3 (313.15 K, x1 = 0.25); 1087.2 ± 1 kg/m3 (313.15 K, x1 = 0.333); 1076 ± 1 kg/m3 (323.15 K, x1 = 0.2); 1079.5 ± 1 kg/m3 (323.15 K, x1 = 0.25); 1082.5 ± 1 kg/m3 (323.15 K, x1 = 0.333).

Turning to `C[N+](C)(C)CCO.[Cl-]` [choline chloride] + OCCOCCO, the mass density is 1120.3 ± 1 kg/m3 (293.15 K, x1 = 0.2); 1122.4 ± 1 kg/m3 (293.15 K, x1 = 0.25); 1113 ± 1 kg/m3 (303.15 K, x1 = 0.2); 1117.9 ± 1 kg/m3 (303.15 K, x1 = 0.25); 1108.9 ± 1 kg/m3 (313.15 K, x1 = 0.2); 1113 ± 1 kg/m3 (313.15 K, x1 = 0.25). For the same molecule, the mass density reads like this: (323.15 K, x1 = 0.2) 1103.2 ± 1 kg/m3; (323.15 K, x1 = 0.25) 1108.3 ± 1 kg/m3.

The values are drawn from the NIST ThermoML archive (doi:10.1016/j.jct.2014.04.012).
